What all share (assay type): biochemical
One experiment concerns the target 9° Nm™ DNA polymerase (Thermococcus sp., UniProt Q56366, E143D). Kind of experiment: Order-of-addition assay (APA of S. enterica DNA, SDS and hydroxypropyl β-CD). How it is done:
Order-of-addition assay: Detection time dependent on cyclodextrin addition prior to brief interaction of enzymes with SDS. Since SDS rapidly and irreversibly inactivated 9° Nm™ DNA polymerase, when the enzyme is instead simultaneously exposed to SDS and β-CD, the kinetics of complexation of the latter two substances must be very rapid, compared with the rate of interaction between SDS and the enzyme.
FIG. 6 depicts data related to detection of S. enterica DNA target (50,000 copies) by APA reactions in a wet “hot-start” format mediated by CleanAmp™ deoxynucleotides (CAdNTP) containing Tris pH7.6, KCl, (NH4)2SO4, MgSO4, Triton X-100, SYBRI, CAdNTP, 9° Nm™ DNA polymerase, with additions of 0.4% SDS (X), 4% hydroxypropyl β-CD (squares), SDS then immediately β-CD (circles), or β-CD then SDS (solid line) with mixing. Control (ctrl dotted line) was no additions. All samples included DNA target. Isothermal APA was at 68° C., collecting intercalating dye fluorescence every 15 seconds to monitor all exponential DNA amplification. […] Negative controls for each condition without S. enterica DNA confirmed specificity of indicated amplification products (not shown).

For another experiment, the system named is nasal ribonuclease. Kind of experiment: Rapid irreversibility of nasal ribonuclease inactivation (RNase alert assay). As to conditions: 0.2% SDS with or without 40 mM cysteine, 60° C.; immediately diluted into 4% β-cyclodextrin. The procedure:
FIG. 13 depicts data related to the rapid irreversibility of nasal ribonuclease inactivation. 5 μl concentrated nasal swab eluate in TE, an amount equivalent to 2% on a typical nasal swab, was mixed with 45 μl of either lysis buffer containing 0.2% SDS (RBS, solid line), RBS containing 40 mM cysteine (squares), or water (dotted line) all preheated to 60° C. 5 μl was immediately diluted into 45 μl 4% β-cyclodextrin to sequester detergent. The recovered RNase activity was determined with an RNase alert assay; as control for the assay, an equivalent amount of nasal swab eluate was directly added without prior treatment (X). […] Unexpectedly, the effectively irreversible inactivation of ribonucleases thus observed during the practice of this invention was virtually instantaneous (monitored by directly testing ribonuclease activity), unlike prior art methods based upon heat. Also shown in this example is that the inactivation properties described for RNase A are also attributable to ribonucleases naturally occurring in nasal exudates.

The next experiment has as its target T1, RNase A (Bos taurus, UniProt P61823).
T1 sequence (P61823 27-150): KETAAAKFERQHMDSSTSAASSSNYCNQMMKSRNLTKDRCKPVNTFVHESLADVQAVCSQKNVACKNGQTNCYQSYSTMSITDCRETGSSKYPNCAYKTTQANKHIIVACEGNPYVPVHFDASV
Kind of experiment: Requirements for irreversible RNase inactivation (influenza B RNA APA in presence of RNase A). As to conditions: 500 ng RNase A (10 μg/ml); additions 0.2% SDS, 10 mM DTT, 0.1% Triton X-100 as labelled; 2 minutes at 58° C.; then 4% βCD.

Sequence of 9° Nm™ DNA polymerase (Q56366 whole entry E143D): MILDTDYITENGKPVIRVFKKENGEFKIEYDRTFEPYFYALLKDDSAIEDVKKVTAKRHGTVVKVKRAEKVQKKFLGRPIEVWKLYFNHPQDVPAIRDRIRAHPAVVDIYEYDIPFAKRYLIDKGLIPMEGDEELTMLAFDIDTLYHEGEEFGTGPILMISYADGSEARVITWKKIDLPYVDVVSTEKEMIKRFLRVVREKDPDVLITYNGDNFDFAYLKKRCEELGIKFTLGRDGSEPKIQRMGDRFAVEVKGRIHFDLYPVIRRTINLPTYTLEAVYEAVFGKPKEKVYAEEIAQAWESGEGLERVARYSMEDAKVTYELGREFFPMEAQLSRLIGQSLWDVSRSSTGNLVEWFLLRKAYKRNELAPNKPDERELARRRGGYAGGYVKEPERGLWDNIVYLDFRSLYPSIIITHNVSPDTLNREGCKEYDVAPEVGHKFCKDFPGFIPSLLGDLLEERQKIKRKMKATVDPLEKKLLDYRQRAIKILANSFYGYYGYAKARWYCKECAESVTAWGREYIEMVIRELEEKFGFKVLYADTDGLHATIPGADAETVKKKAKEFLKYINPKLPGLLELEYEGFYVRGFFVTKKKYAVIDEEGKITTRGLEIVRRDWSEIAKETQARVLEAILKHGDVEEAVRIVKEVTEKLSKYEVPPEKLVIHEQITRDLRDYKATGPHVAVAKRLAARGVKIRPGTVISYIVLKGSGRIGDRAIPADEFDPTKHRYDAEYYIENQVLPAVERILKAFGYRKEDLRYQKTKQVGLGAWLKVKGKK

In the case of `CCCCCCCCCCCCOS(=O)(=O)[O-].[Na+]` [SDS, sodium dodecyl sulfate], the “Effect on APA amplification” value on 9° Nm™ DNA polymerase (0.4% SDS alone, S. enterica DNA 50,000 copies) is recorded as “Barrier to amplification”. Further, the “Effect on 9° Nm™ DNA polymerase” value on 9° Nm™ DNA polymerase (0.4% SDS then immediately β-CD (brief exposure)) is “sufficient to inactivate”. The “Reversibility of nasal RNase inactivation after SDS sequestration” value in the experiment on nasal ribonuclease is “virtually completely reversible”. Moreover, at RNase A, the “Influenza B RNA detection by APA after RNase A pretreatment” value is given as “did not prevent significant restoration of RNase A activity”.

The values above are taken from patent US20250154607A1, “ISOTHERMAL AMPLIFICATION OF PATHOGENS” (priority 2021, published 2025).
